Read-outs that look alike come from different tables or passages of the source.
Key:
[1] = Tissue pharmacokinetics of released TQ and its metabolites in liver, plasma and urine (LC-MS/MS); format: in vivo, BALB/c mice
[2] = system: P. berghei; assay: P. berghei luciferase and blood parasitemia model of causal prophylaxis; format: in vivo
Method: Efficacy studies in the P. berghei mouse model of causal prophylaxis were conducted at the Walter Reed Army Institute of Research, Experimental Therapeutics Branch as previously described ([46]).
Luciferase-expressing P. berghei ANKA sporozoites were obtained from laboratory-reared female Anopheles stephens mosquitoes as previously described ([46]). Sporozoites were recovered by the method of Li et al. ([62]) and quantitated using a hemocytometer. Sporozoites isolated from the same batch of mosquitoes were inoculated into mice on the same day to control biological variability in sporozoite preparations. Each animal was inoculated IV in the tail vein with approximately 10,000 sporozoites suspended in 0.1-ml volume on day 0.
Age-matched, 40 young adult (7-week-old) female C57BL/6 albino mice were purchased from Charles River Laboratories (Frederick, MD). On arrival, animals were acclimated for 7 days in quarantine. Mice were housed and maintained at a temperature range of 64° to 79°F, 34 to 68% relative humidity, and a 12-hour light/dark cycle. Food and water were provided ad libitum. Animals were fed a standard rodent maintenance diet. All animal use, care, and handling was conducted under an IACUC-approved animal use protocol in an Association for Assessment and Accreditation for Laboratory Animal Care International (AAALACi)–accredited facility with a Public Health Services Animal Welfare Assurance and in compliance with the Animal Welfare Act and other federal statutes and regulations relating to laboratory animals.
TQ was dissolved at a stock concentration of 1 mg/ml in 25% hydroxy-β-cyclodextrin acidified to pH 5 with acetic acid and diluted in DPBS for final dosing solutions. Polymers for parenteral administration were prepared in DPBS at the final dosing concentrations. All drug concentrations were calculated per the free base molecular weights of TQ. TQ parent compounds were administered intragastrically via an intragastric feeder tube. Vehicle groups (0.1 ml of DPBS) and polymer groups were administered SC in the right flank. Free TQ, vehicle, and polymers were given as a single dose on day −1. In this model, the pSVCTQ doses studied were 5.0, 7.5, or 10 mg/kg TQ equivalent.
Whole-body IVIS imaging of bioluminescence activity from luciferase-expressing P. berghei–infected mice was performed using a PerkinElmer IVIS Spectrum. Mice were evaluated at 24, 48, and 72 hours after sporozoite inoculation to determine liver- and blood-stage malaria infection. Mice received luciferin (150 mg/kg, Gold Biotechnology, St. Louis, MO) intraperitoneally in a maximal volume of 150 μl. Three minutes after luciferin administration, the mice were anesthetized with inhaled isoflurane and positioned ventral side up in the IVIS Spectrum on a 37°C platform. The mice continued to receive isoflurane through nose cone delivery. The camera exposure times used were 1 or 5 min for the 24-, 48-, and 72-hour time points with f-stop = 1, and the large binning setting was chosen. Quantitative analysis of bioluminescence emitted from whole bodies or […] (ROI) were determined by measuring the luminescence signal intensity in photons per second using the ROI settings of the Living Image 3.0 software. The ROI, expressed in total flux of photons, was set to measure the abdominal area at the location of the liver from whole-body imaging ([62]). The data were generally found to fit a normal distribution. Means and SDs of photon measurement were calculated.
On days 5 to 31 after infection, mice were analyzed for blood-stage infections by quantitation of malaria parasites in erythrocytes by flow cytometry. Blood (3 μl) from the mouse tail was collected directly into 0.3 ml of 1% heparinized isotonic buffer (PBS saline). After addition of 1 ml of 0.04% of glutaraldehyde for fixation, the samples were incubated at 4°C for 60 min. Cells were centrifuged at 450g for 5 min. […]

[3] = Hemotoxicity in humanized G6PD deficiency mouse model; format: in vivo, human RBCs engrafted in NOD/SCID mice; settings: female, NOD/SCID (NOD.CB17-Prkdcscid/J), mouse, in vivo; curve fit of Fig. 4B; single dose; pSVCTQ SC, TQ oral; day 7; read-out: Dose resulting in 50% hemolysis (TD50)
Method: (§1) Following procedures as previously published ([46]), hemotoxicity studies using huRBC engraftments were conducted in mice.
(§2) Female (8 to 9 weeks) NOD.CB17-Prkdcscid/J [nonobese diabetic severe combined immunodeficient (NOD/SCID)] mice were purchased from The Jackson Laboratory (Bar Harbor, ME). The animals were housed in a cage maintained in a specific pathogen–free animal facility and were acclimated for 1 week in the facility before initiation of experimental procedures. Sterile food and water were provided ad libitum throughout the study as previously described ([64]). All animal studies were performed under IACUC-approved protocols and adhere to the principles stated in the Guide for the Care and Use of Laboratory Animals ([100]).
(§3) Polymer solutions for SC administration were prepared in DPBS at the final dosing concentrations. All drug concentrations were calculated per the free base molecular weights of TQ. The TQ parent compound was administered intragastrically via an intragastric feeder tube. Polymers and vehicle were administered SC in the right flank. TQ, pSVCTQ, and vehicle were given as a single dose on day 0. In this model, the TQ dose studied was 10 mg/kg; pSVCTQ was tested at doses of 2.5, 5.0, or 10 mg/kg TQ equivalent.
(§4) The percentage of huRBCs at the end of this period was analyzed by flow cytometry to evaluate glycophorin A (huRBCs) and Ter119 (mouse RBCs) circulating in peripheral blood. […] The G6PD-deficient huRBC NOD/SCID mice were dosed with pSVCTQ or parent drug prepared as described above, with three to four mice per group. On days 4 and 7 following dosing, huRBC levels were assessed again by flow cytometry (glycophorin^+Ter119^−), along with the percentage of murine reticulocytes (CD71^+Ter119) as an additional marker of hemolytic toxicity. Mice were euthanized on day 7 following initiation of treatment.
(§5) Microsoft Excel and GraphPad Prism were used throughout the PK analysis to process the data, calculate pharmacokinetic parameters, and yield statistical information. A linear regression model was produced using the least squares fitting method with 1/x^2 scaling for the assay calibrators. […] For the G6PD deficiency model, data analysis was performed using GraphPad Prism (GraphPad Software). […] An F test comparing the two dose-response curves was also run. For all other work, a combination of Microsoft Excel and GraphPad Prism was used.

[4] = system: G6PD-deficient huRBCs; assay: as above; format: in vivo, human RBCs engrafted in NOD/SCID mice; settings: single dose day 0; pSVCTQ SC, TQ oral; A− G6PD-deficient donor
Method: as §1, §2, §3, §4, §5

[5] = design: method as in PMID 28749773; settings: G6PD-deficient cohort, cited from earlier work
[6] = Polymer biodistribution (IVIS imaging) and liver hepatocyte localization (histology); format: in vivo; settings: mice
Method: Mice were dosed SC with rhodamine-labeled pSVCTQ at the dose of equivalent 25 mg/kg TQ, which were then euthanized at 8 hours after injection. Selected organs, including liver, kidneys, lungs, spleen, heart, and brain, were harvested and washed with PBS before imaging studies (IVIS) using fluorescent mode at (excitation/emission: 530/585 nm), Caliper Xenogen IVIS (PerkinElmer, Hopkinton, MA). The radiant efficiency emitted from the organs in each mouse was subsequently quantified using Xenogen Living Image software. Mice treated with PBS served as controls (fig. S12). Three mice were included in each group.
Rhodamine-labeled pSVCTQ was formulated in PBS and SC administered in mice at a dose of 25 mg/kg TQ equivalent. Mice receiving PBS served as controls. The liver was harvested at 8 hours after injection and immediately fixed in 10% neutral buffered formalin at 4°C for 4 hours. After washing three times in cold PBS, the liver tissue was sunk in 15% sucrose solution for 24 hours and then in 30% sucrose solution for 24 hours at 4°C. The sucrose solution was prepared in DPBS (1×, with Mg^2+ and Ca^2+). The liver tissue was then blotted with paper tissue and embedded in an optimal cutting temperature compound. The sample was frozen in prechilled isopentane in liquid nitrogen and stored at −80°C. The 5-μm-thick sections were prepared using CryoStat at −20°C. Alexa Fluor 488 phalloidin was diluted 1:50 in PBS and used to counterstain the sections for 1 hour at room temperature (RT) to visualize cell outlines. The cell nuclei were counterstained with DAPI (blue) for 5 min at RT. Sections were imaged using an epi-fluorescent microscope (Nikon Eclipse 90i and Hamamatsu C10600 Camera at 20× magnification) using GFP-B HYQ (excitation/emission: 450/550 nm) Texas red HYQ (excitation/emission: 535/580 nm) and ultraviolet illumination (excitation/emission: 350/470 nm).

[7] = female, BALB/c, mouse, in vivo, po, 10 mg/kg
[8] = 8 hours after SC 25 mg/kg TQ equivalent

## COc1cc(C)c2c(Oc3cccc(C(F)(F)F)c3)c(OC)cc(NC(C)CCCN)c2n1 (stereo not shown) [TQ, tafenoquine]
[1]; [7]
  AUC: 22.4 µg·h/mL
  AUC, liver: 1404 μg/g liver*hour
  Cmax: 0.38 µg/mL
  Cmax, liver: 17 μg/g liver
  Kp: 62.8
  Tmax: 8 h
[2]; 10 mg/kg PO, single dose day −1, 31 days, n = 5
  Mice survived: 2/5
[2]; 10 mg/kg oral, single dose day −1
  Blood parasitemia suppression: partial suppression of parasitemia
[2]; 10 mg/kg single dose day −1, pSVCTQ SC, TQ oral
  IVIS signal during days 1 to 3: completely suppressed
[3]
  TD50 at 7 days: 5 mg/kg
[4]
  Median effective dose (dose that results in 50% huRBC loss by day 7 relative to vehicle control): 4.7 mg/kg
[5]; 100-mg dose
  Hemolytic toxicity (decreases in hemoglobin and hematocrit): did not produce hemotoxicity
[5]; 300-mg dose
  Hemolytic toxicity (decreases in hemoglobin and hematocrit): dose-limiting

## p(GMA-co-SVATQMA) [tri-antennary GalNAc polymeric prodrug]
[1]; SC 10 mg/kg dose, mice (fig. S15C)
  Liver AUC drug exposure compared with the copolymer: equivalent to the copolymer

## p(GalNAc-MA-co-SVCTQ-MA-co-RheMA) [rhodamine-labeled pSVCTQ]
[6]; [8]
  Fluorescence in lungs, heart, spleen, and brain (IVIS): little fluorescence intensity
  Fluorescence in the kidneys (IVIS): low level of fluorescence
  Liver accumulation (IVIS fluorescence): accumulate in the liver with high selectivity
[6]; liver 8 hours after SC 25 mg/kg TQ equivalent
  Liver penetration / hepatocyte distribution (cross-sectional histology): present in every hepatocyte

## p(GalNAc-co-MSEMA-co-SVCTQMA) [lower GalNAc polymeric prodrug design]
[1]; TQ in liver and plasma after SC 10 mg/kg dose, mice (fig. S15B)
  PK properties compared with pSVCTQ: preserved much of the PK properties

## p(GalNAc-MA-co-VCTQ-MA) [pVCTQ]
[1]; 25 mg/kg, IV, mice
  Liver:plasma AUC ratio: 120
[1]; TQ in liver, 25 mg/kg TQ equivalent, IV, mice, t = 0 to 336 hours
  AUC, liver: 2725 μg/g liver*hour
[1]; TQ in liver, 25 mg/kg, IV, mice
  Cmax, liver: 48 μg/g liver
